“And” between values parts separate entries of the source, which are not always exact repeats. Identical values can stand only once.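 Test compounds were applied to cells in 96-well plates for 48 hours at 5 doses. The concentration for 50% growth inhibition is given as GI50. At the TGI there is no net growth.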
Tests used:
Assay in all cases: NCI tumour cell line growth inhibition, 48 h
U251 CNS = system: U251 CNS
786-0 renal = system: 786-0 renal
SF-295 CNS = system: SF-295 CNS
HCT-15 colon = system: HCT-15 colon
OVCAR-8 ovarian = system: OVCAR-8 ovarian
DU-145 prostate = system: DU-145 prostate
COLO 205 colon = system: COLO 205 colon
SK-MEL-5 melanoma = system: SK-MEL-5 melanoma
UO-31 renal = system: UO-31 renal

| SMILES | TGI (U251 CNS) | TGI (786-0 renal) | TGI (SF-295 CNS) | TGI (HCT-15 colon) | TGI (OVCAR-8 ovarian) | TGI (DU-145 prostate) | TGI (COLO 205 colon) | TGI (SK-MEL-5 melanoma) | TGI (UO-31 renal) | GI50 (U251 CNS) | GI50 (786-0 renal) | GI50 (SF-295 CNS) | GI50 (HCT-15 colon) | GI50 (OVCAR-8 ovarian) | GI50 (DU-145 prostate) | GI50 (COLO 205 colon) | GI50 (SK-MEL-5 melanoma) | GI50 (UO-31 renal) |
| --- | --- | --- | --- | --- | --- | --- | --- | --- | --- | --- | --- | --- | --- | --- | --- | --- | --- | --- |
| O=C[C@@H](CO)O[C@H](C=O)c1c[nH]c(=O)[nH]c1=O | 930 µM | 1310 µM | 1150 µM | 327 µM | 352 µM | 437 µM | 1210 µM | 309 µM | 287 µM |  |  |  |  |  |  |  |  |  |
| NCCNc1c2c(c(NCCN)c3c(CO)c[nH]c13)C(=O)c1ccccc1C2=O | > 100 µM | > 100 µM | 43.8 µM | > 100 µM | 47.2 µM | > 100 µM | > 100 µM | 69.3 µM | > 100 µM | 2.53 µM | 5.21 µM | 6.16 µM | > 100 µM | 5.26 µM | 12 µM | 8.38 µM | 19.9 µM | 80.8 µM |
| Clc1ccc(CSC(Cn2ccnc2)c2ccc(Cl)cc2Cl)cc1 (stereo not drawn) | 2.68 µM | 3.13 µM | 2.89 µM | 3.76 µM | 3.32 µM | 4.64 µM | 2.83 µM | 2.96 µM | 4.48 µM | 1.39 µM | 1.61 µM | 1.37 µM | 1.68 µM | 1.6 µM | 2.09 µM | 1.5 µM | 1.61 µM | 1.38 µM |
| CN(C)CCOc1ccc(-c2nc(-c3ccc4c(c3)CC/C4=N\O)c(-c3ccncc3)[nH]2)cc1 | 9.15 µM and 4.69 µM | 9.83 µM and 4.17 µM | 9.42 µM and 21.4 µM | 25 µM and 57.4 µM | 10.1 µM and 8.96 µM | 7.82 µM and 17.4 µM | 3.1 µM and 5.06 µM | 6.81 µM and 19.9 µM | 10 µM and 45.6 µM | 4.83 µM and 2.35 µM | 5.02 µM and 2.22 µM | 4.6 µM and 8.82 µM | 9.22 µM and 15.5 µM | 4.84 µM and 3.2 µM | 4.11 µM and 9.02 µM | 0.00987 µM and 0.0293 µM | 3.31 µM and 5.46 µM | 5.61 µM and 18.8 µM |
| Cc1cc2nc(C(C)C(=O)c3ccc(Cl)cc3)c(=O)[nH]c2cc1C (stereo not drawn) | > 100 µM | 92.3 µM | > 100 µM | > 100 µM | > 100 µM | > 100 µM | 53.7 µM | > 100 µM | > 100 µM |  |  |  |  |  |  |  |  |  |
| CC[C@]12CCCN3CCc4c(n(c5ccccc45)C(=O)C1)[C@@H]32 | > 52.2 µM | > 56.2 µM | 18.4 µM | > 100 µM | > 100 µM | > 92.7 µM | > 34 µM | > 35.1 µM | > 100 µM |  |  |  |  |  |  |  |  |  |
| CCOC(=O)c1ccc2[nH]c(-c3ccc(S(=O)(=O)F)cc3)cc(=O)c2c1 | > 100 µM | > 100 µM | > 100 µM | > 100 µM | > 100 µM | > 100 µM | > 100 µM | > 100 µM | > 100 µM |  |  |  |  |  |  |  |  |  |
| COc1ccc(-c2cc(-c3cc(Cl)ccc3Cl)nc3n[nH]c(N)c23)cc1 | > 100 µM | 54.1 µM | > 100 µM | > 100 µM | > 100 µM | > 100 µM | > 100 µM | 34.5 µM | > 100 µM | 8.95 µM | 19.3 µM | 6.62 µM | 11.6 µM | 32 µM | 36 µM | 34.6 µM | 14.4 µM | 27.9 µM |

Source: PubChem BioAssay (NCI)
